# Test results as given in PubChem BioAssay AID212 (DTP/NCI, 2004).
# Where “and” joins values, the source holds several entries; their conditions need not be identical. Equal entries are not always repeated. Records with an inconclusive call do not appear.
# Tested on: BDF1 mice, colon carcinoma 38 sc, T/C %
# Experiment: NCI In Vivo Anticancer Drug Screen. Data for tumor model Colon Carcinoma 38 (subcutaneous) in B6D2F1 (BDF1) mice
# Details: endpoint: median tumor weight (est.), higher = larger tumour
# Summary of the method: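 Mice with transplanted tumors are treated with compound or vehicle. Survival or tumor size is then measured in both groups. The ratio of treated to control gives the reported figure.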
# [1] = dose: 12.5 mg/kg/injection, schedule: Q07DX002 (ip), vehicle: saline
# [2] = dose: 25.0 mg/kg/injection, schedule: Q07DX002 (ip), vehicle: saline
# [3] = dose: 100.0 mg/kg/injection, schedule: Q07DX002 (ip), vehicle: saline
# [4] = dose: 400.0 mg/kg/injection, schedule: Q07DX002 (ip), vehicle: saline
# [5] = dose: 6.25 mg/kg/injection, schedule: Q07DX002 (ip), vehicle: saline with Tween-80
# [6] = dose: 12.5 mg/kg/injection, schedule: Q07DX002 (ip), vehicle: saline with Tween-80
# [7] = dose: 25.0 mg/kg/injection, schedule: Q07DX002 (ip), vehicle: saline with Tween-80
# [8] = dose: 100.0 mg/kg/injection, schedule: Q07DX002 (ip), vehicle: Klucel (hydroxypropylcellulose) (HPC)
# [9] = dose: 200.0 mg/kg/injection, schedule: Q07DX002 (ip), vehicle: Klucel (hydroxypropylcellulose) (HPC)
# [10] = dose: 50.0 mg/kg/injection, schedule: Q07DX002 (ip), vehicle: saline with Tween-80
# [11] = dose: 100.0 mg/kg/injection, schedule: Q07DX002 (ip), vehicle: saline with Tween-80
# [12] = dose: 400.0 mg/kg/injection, schedule: Q07DX002 (ip), vehicle: Klucel (hydroxypropylcellulose) (HPC)
# [13] = dose: 200.0 mg/kg/injection, schedule: Q07DX002 (ip), vehicle: saline
smiles,measurement,setting,value
CC(=O)OCC12CCC(C)=CC1OC1C(OS(C)(=O)=O)C(=O)C2(C)C12CO2 (stereo not given),T/C,"dose: 0.25 mg/kg/injection, schedule: Q07DX002 (ip), vehicle: saline",189 % of control
same,T/C,"dose: 5.0 mg/kg/injection, schedule: Q07DX002 (ip), vehicle: saline",98 % of control
same,T/C,"dose: 10.0 mg/kg/injection, schedule: Q07DX002 (ip), vehicle: saline",88 % of control
NS(=O)(=O)c1cc2c(cc1Cl)NC=NS2(=O)=O,T/C,"dose: 75.0 mg/kg/injection, schedule: Q07DX002 (ip), vehicle: Klucel (hydroxypropylcellulose) (HPC)",120 % of control
same,T/C,"dose: 150.0 mg/kg/injection, schedule: Q07DX002 (ip), vehicle: Klucel (hydroxypropylcellulose) (HPC)",113 % of control
same,T/C,"dose: 300.0 mg/kg/injection, schedule: Q07DX002 (ip), vehicle: Klucel (hydroxypropylcellulose) (HPC)",90 % of control
same,T/C,"dose: 1200.0 mg/kg/injection, schedule: Q07DX002 (ip), vehicle: Klucel (hydroxypropylcellulose) (HPC)",60 % of control
COc1ccc(/C=C/C(=O)c2cc(C(=O)O)c(OC)cc2OC)cc1OC,T/C,[1],94 % of control and 103 % of control
same,T/C,[2],88 % of control and 94 % of control
same,T/C,"dose: 50.0 mg/kg/injection, schedule: Q07DX002 (ip), vehicle: saline",114 % of control and 124 % of control
same,T/C,[3],88 % of control and 96 % of control
same,T/C,[4],93 % of control and 103 % of control
O=C1C2CC=CCC2C(=O)N1SC(Cl)(Cl)Cl (stereo not given),T/C,"dose: 3.12 mg/kg/injection, schedule: Q07DX002 (ip), vehicle: saline with Tween-80",107 % of control
same,T/C,[5],110 % of control
same,T/C,[6],99 % of control
same,T/C,[7],84 % of control
CN(C)CCCOC(=O)Cc1cccc2c(=O)cc(-c3ccccc3)oc12,T/C,[8],107 % of control
same,T/C,[9],81 % of control
OCC1OC(n2cnc3cc(Cl)c(Cl)cc32)C(O)C1O (stereo not given),T/C,[6],101 % of control
same,T/C,[7],98 % of control
same,T/C,[10],105 % of control
same,T/C,[11],98 % of control
COC(=O)[C@@H]1c2cc3c(c(O)c2[C@@H](OC)C[C@@]1(C)O)C(=O)c1c(O)cc2c(c1C3=O)OC1O[C@@]2(C)[C@H](O)[C@@H](N(C)C)[C@@H]1O,T/C,"dose: 6.25 mg/kg/injection, schedule: Q07DX002 (ip), vehicle: saline",101 % of control
same,T/C,[1],115 % of control and 121 % of control
same,T/C,"dose: 12.5 mg/kg/injection, schedule: Q07DX003 (ip), vehicle: suspension in saline",124 % of control
same,T/C,[2],102 % of control
same,T/C,"dose: 50.0 mg/kg/injection, schedule: Q07DX003 (ip), vehicle: suspension in saline",114 % of control
same,T/C,"dose: 100.0 mg/kg/injection, schedule: Q07DX003 (ip), vehicle: suspension in saline",106 % of control
same,T/C,"dose: 200.0 mg/kg/injection, schedule: Q07DX003 (ip), vehicle: suspension in saline",104 % of control
same,T/C,"dose: 400.0 mg/kg/injection, schedule: Q07DX003 (ip), vehicle: suspension in saline",85 % of control
CCCCCCCCCCCCCCCCS(=O)CC(O)COC(=O)c1ccc(C(=O)OCC(O)CS(=O)CCCCCCCCCCCCCCCC)cc1 (stereo not given),T/C,"dose: 12.5 mg/kg/injection, schedule: Q07DX002 (ip), vehicle: saline + alcohol",111 % of control
same,T/C,"dose: 25.0 mg/kg/injection, schedule: Q07DX002 (ip), vehicle: saline + alcohol",98 % of control
same,T/C,"dose: 50.0 mg/kg/injection, schedule: Q07DX002 (ip), vehicle: saline + alcohol",98 % of control
same,T/C,"dose: 100.0 mg/kg/injection, schedule: Q07DX002 (ip), vehicle: saline + alcohol",117 % of control
same,T/C,"dose: 200.0 mg/kg/injection, schedule: Q07DX002 (ip), vehicle: saline + alcohol",76 % of control
same,T/C,"dose: 400.0 mg/kg/injection, schedule: Q07DX002 (ip), vehicle: saline + alcohol",104 % of control
O=C(O)Cc1cc(O)cc2c(=O)cc(-c3ccccc3)oc12,T/C,[8],52 % of control
same,T/C,[9],63 % of control
same,T/C,[12],103 % of control
CN(C)CCN1C(=O)c2cccc3cc(N)cc(c23)C1=O,T/C,"dose: 2.0 mg/kg/injection, schedule: Q07DX002 (ip), vehicle: saline with Tween-80",111 % of control
same,T/C,"dose: 4.0 mg/kg/injection, schedule: Q07DX002 (ip), vehicle: saline with Tween-80",97 % of control
same,T/C,"dose: 8.0 mg/kg/injection, schedule: Q07DX002 (ip), vehicle: saline with Tween-80",87 % of control and 88 % of control
same,T/C,"dose: 16.0 mg/kg/injection, schedule: Q07DX002 (ip), vehicle: saline with Tween-80",100 % of control
same,T/C,"dose: 64.0 mg/kg/injection, schedule: Q07DX002 (ip), vehicle: saline with Tween-80",55 % of control and 58 % of control
Cc1ccccc1N(CC1CO1)CC1CO1 (stereo not given),T/C,[7],81 % of control
same,T/C,[10],104 % of control
same,T/C,[11],57 % of control
same,T/C,"dose: 200.0 mg/kg/injection, schedule: Q07DX002 (ip), vehicle: saline with Tween-80",123 % of control
same,T/C,[13],154 % of control
same,T/C,"dose: 800.0 mg/kg/injection, schedule: Q07DX002 (ip), vehicle: saline",89 % of control
C=C(C)[C@@H]1CCc2c(O)c(O)c(=O)cc(C)c2C1,T/C,"dose: 25.0 mg/kg/injection, schedule: Q07DX002 (ip), vehicle: Klucel (hydroxypropylcellulose) (HPC)",102 % of control
same,T/C,"dose: 50.0 mg/kg/injection, schedule: Q07DX002 (ip), vehicle: Klucel (hydroxypropylcellulose) (HPC)",64 % of control
same,T/C,[8],85 % of control
same,T/C,[9],96 % of control
same,T/C,[12],102 % of control
CCCCC(C)(C(=O)OCC)C(=O)OCC,T/C,"dose: 25.0 mg/kg/injection, schedule: Q07DX003 (ip), vehicle: Klucel (hydroxypropylcellulose) (HPC)",68 % of control and 69 % of control
same,T/C,"dose: 200.0 mg/kg/injection, schedule: Q07DX003 (ip), vehicle: Klucel (hydroxypropylcellulose) (HPC)",63 % of control and 85 % of control
same,T/C,"dose: 400.0 mg/kg/injection, schedule: Q07DX003 (ip), vehicle: Klucel (hydroxypropylcellulose) (HPC)",91 % of control and 102 % of control
Cc1cc(NC(=S)SCc2ccc3c(c2)OCO3)ccc1Cl,T/C,[8],111 % of control
same,T/C,[9],82 % of control
CCCCCn1c(C)cc(/C=C\c2ccc3cc(C)ccc3[n+]2C)c1C,T/C,"dose: 0.62 mg/kg/injection, schedule: Q07DX002 (ip), vehicle: Klucel (hydroxypropylcellulose) (HPC)",85 % of control and 86 % of control
same,T/C,"dose: 1.25 mg/kg/injection, schedule: Q07DX002 (ip), vehicle: Klucel (hydroxypropylcellulose) (HPC)",104 % of control
same,T/C,"dose: 37.5 micrograms/kg/injection, schedule: Q07DX002 (ip), vehicle: Klucel (hydroxypropylcellulose) (HPC)",84 % of control
same,T/C,"dose: 75.0 micrograms/kg/injection, schedule: Q07DX002 (ip), vehicle: Klucel (hydroxypropylcellulose) (HPC)",186 % of control
same,T/C,"dose: 150.0 micrograms/kg/injection, schedule: Q07DX002 (ip), vehicle: Klucel (hydroxypropylcellulose) (HPC)",162 % of control
same,T/C,"dose: 600.0 micrograms/kg/injection, schedule: Q07DX002 (ip), vehicle: Klucel (hydroxypropylcellulose) (HPC)",188 % of control
C[CH2][Sn]1([CH2]C)[O]OC(c2ccccc2)[O]1 (stereo not given),T/C,"dose: 1.56 mg/kg/injection, schedule: Q07DX002 (ip), vehicle: saline with Tween-80",121 % of control
same,T/C,[5],237 % of control
same,T/C,[6],195 % of control
same,T/C,[7],84 % of control
CN(C)N=Nc1cn[nH]c1C(N)=O,T/C,"dose: 6.25 mg/kg/injection, schedule: Q07DX002 (ip), vehicle: Klucel (hydroxypropylcellulose) (HPC)",102 % of control
O=C(O)Cc1cccc2c(=O)cc(-c3ccc4ccccc4c3)oc12,T/C,[3],104 % of control
same,T/C,[13],59 % of control
ClCC[N+]12CC[N+](CCCl)(CC1)C2,T/C,[1],115 % of control and 123 % of control
same,T/C,"dose: 12.5 mg/kg/injection, schedule: Q07DX003 (ip), vehicle: saline",56 % of control
same,T/C,"dose: 12.5 mg/kg/injection, schedule: Q07DX003 (ip), vehicle: water",84 % of control
same,T/C,"dose: 25.0 mg/kg/injection, schedule: Q07DX003 (ip), vehicle: saline",65 % of control
same,T/C,"dose: 25.0 mg/kg/injection, schedule: Q07DX003 (ip), vehicle: water",78 % of control
same,T/C,"dose: 50.0 mg/kg/injection, schedule: Q07DX003 (ip), vehicle: saline",72 % of control
same,T/C,"dose: 50.0 mg/kg/injection, schedule: Q07DX003 (ip), vehicle: water",44 % of control
same,T/C,"dose: 100.0 mg/kg/injection, schedule: Q07DX003 (ip), vehicle: saline",123 % of control
same,T/C,"dose: 100.0 mg/kg/injection, schedule: Q07DX003 (ip), vehicle: water",45 % of control
same,T/C,"dose: 200.0 mg/kg/injection, schedule: Q07DX003 (ip), vehicle: saline",70 % of control
same,T/C,[4],47 % of control and 52 % of control
same,T/C,"dose: 400.0 mg/kg/injection, schedule: Q07DX003 (ip), vehicle: saline",115 % of control
